From patent US6723753B2, “Substituted n-benzyl-n-phenyl aminoalcohol compounds useful for inhibiting cholesteryl ester transfer protein activity” (Pharmacia Corporation, priority 2002, dated 2004) come the findings set out here.

The target in assay [1] is T1, CETP (Homo sapiens, UniProt P11597).
T1 sequence (P11597 18-493): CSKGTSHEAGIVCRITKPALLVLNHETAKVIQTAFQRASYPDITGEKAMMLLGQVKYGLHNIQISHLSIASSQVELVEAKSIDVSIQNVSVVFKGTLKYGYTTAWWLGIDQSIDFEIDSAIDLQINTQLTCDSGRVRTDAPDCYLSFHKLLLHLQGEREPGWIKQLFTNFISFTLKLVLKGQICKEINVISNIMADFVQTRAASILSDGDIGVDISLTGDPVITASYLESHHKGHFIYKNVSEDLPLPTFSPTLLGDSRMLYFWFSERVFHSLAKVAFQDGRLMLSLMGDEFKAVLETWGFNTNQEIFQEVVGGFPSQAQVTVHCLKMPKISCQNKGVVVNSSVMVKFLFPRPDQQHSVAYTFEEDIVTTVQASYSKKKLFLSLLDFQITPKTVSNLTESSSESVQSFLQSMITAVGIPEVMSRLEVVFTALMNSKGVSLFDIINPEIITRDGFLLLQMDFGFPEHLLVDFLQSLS
As to the kind of experiment: Assay of CETP Inhibition using Purified Components (Reconstituted Buffer Assay). It counts as biochemical. Set-up: made in house; host or cells: CHO cells (serum-free conditioned medium). The following applies: Inhibition of CETP activity in reconstituted buffer assay; transfer of [3H]CE from HDL to LDL; read-out: IC50. In a few lines:
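Purified human recombinant CETP from transfected CHO cells was incubated with [^3H]CE-labeled HDL donor and LDL acceptor in Tris pH 7.4/NaCl/EDTA/1% BSA buffer for 2 h at 37 °C. LDL was then precipitated with dextran sulfate/MgCl2, filtered, and counted by liquid scintillation to give IC50 for CE transfer.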

For assay [2], the target named is T1, CETP. As to the kind of experiment: Assay of CETP Inhibition in Human Plasma. It counts as biochemical. More on the design: Blood was obtained from healthy volunteers, recruited from the personnel of Monsanto Company; from tissue; host or cells: human EDTA plasma pool from healthy volunteers. The following applies: Inhibition of CETP activity in human plasma assay; transfer of [3H]CE from HDL to VLDL and LDL; read-out: IC50. In a few lines:
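In human EDTA plasma with [3H]CE-HDL, compounds in 1% DMSO (4 μL in 396 μL) were incubated 4 h at 37° C. IC50 was taken from % control versus concentration.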

Some results are limits rather than exact numbers.

By IC50 is commonly meant the midpoint of a concentration-inhibition curve. With `Cc1ccc(CN(CC(O)C(F)(F)F)c2cccc(F)c2)cc1` (stereo not shown) [Example 33], the results for the IC50 on CETP [1] and on CETP [2] were 15 µM and 500 µM, respectively.
`OC(CN(Cc1cccc(OC(F)(F)C(F)F)c1)c1cccc(OCc2ccc(OC(F)F)cc2)c1)C(F)(F)F` (stereo not shown) [Example 389]: the IC50 at CETP [1] is 0.7 µM; on CETP [2] it was more than 50 µM.
In the same order, the values of `O=[N+]([O-])c1ccccc1Oc1cccc(N(Cc2cccc(OC(F)(F)C(F)F)c2)CC(O)C(F)(F)F)c1` (stereo not shown) [Example 436, 3-[[3-(2-nitrophenoxy)phenyl][[3-(1,1,2,2-tetrafluoroethoxy)phenyl]-methyl]amino]-1,1,1-trifluoro-2-propanol] are 0.42 µM and 14 µM.
Take `OC(CN(Cc1cccc(OC(F)(F)C(F)F)c1)c1cccc(-c2ccc(F)c(Cl)c2)c1)C(F)(F)F` (stereo not shown) [Example 554]: the half-maximal inhibitory concentration (IC50) is 0.75 µM at CETP [1] and 18 µM at CETP [2].
As to `OC(CN(Cc1cccc(OC(F)(F)C(F)F)c1)c1cccc(OCc2ccccc2F)c1)C(F)(F)F` (stereo not shown) [Example 390], the half-inhibitory concentration (IC50) at CETP [1] was determined as 0.34 µM; at CETP [2], 24 µM.
In the case of `CC(C)Oc1cccc(N(Cc2cccc(OC(F)(F)C(F)F)c2)CC(O)C(F)(F)F)c1` (stereo not shown) [Example 489], the values for the IC50 on CETP [1] and at CETP [2] were 0.33 µM and 8.8 µM, respectively.
In the same order, the values of `OC(CN(Cc1cccc(OC(F)(F)C(F)F)c1)c1cccc(OC(F)(F)F)c1)C(F)(F)F` (stereo not shown) [Example 71] are 1.2 µM and 36 µM.
For `CSc1ccc(Oc2cccc(N(Cc3cccc(OC(F)(F)C(F)F)c3)CC(O)C(F)(F)F)c2)cc1C` (stereo not shown) [Example 271], the values for the half-inhibitory concentration (IC50) on CETP [1] and at CETP [2] were 0.5 µM and 34 µM, respectively.
Regarding `CCC(C)c1ccc(Oc2cccc(N(Cc3cccc(OC(F)(F)C(F)F)c3)CC(O)C(F)(F)F)c2)cc1` (stereo not shown) [Example 254], the IC50 at CETP [1] turned out to be 0.65 µM; on CETP [2], 77 µM.
In the same order, the values of `COc1cc(OC)cc(Oc2cccc(N(Cc3cccc(OC(F)(F)C(F)F)c3)CC(O)C(F)(F)F)c2)c1` (stereo not shown) [Example 268] are 0.58 µM and 37 µM.
Regarding `OC(CN(Cc1cccc(OC(F)(F)C(F)F)c1)c1cccc(Nc2ccccc2)c1)C(F)(F)F` (stereo not shown) [Example 294], the IC50 on CETP [1] worked out at 0.88 µM; at CETP [2], 30 µM.
On to `OC(CN(Cc1ccc(C(F)(F)F)cc1)c1ccc(F)c(C(F)(F)F)c1)C(F)(F)F` (stereo not shown) [Example 75], for which the IC50 was determined as 7 µM on CETP [1] and 200 µM at CETP [2].
In the same order, the values of `OC(CN(Cc1cccc(OC(F)(F)C(F)F)c1)c1cccc(Nc2cccc(Cl)c2)c1)C(F)(F)F` (stereo not shown) [Example 304] are 1.9 µM and 76 µM.
`OC(CN(Cc1cccc(-c2cccs2)c1)c1cccc(Oc2ccccc2)c1)C(F)(F)F` (stereo not shown) [Example 595, 3-[(3-phenoxyphenyl) [[3-(2-thienyl)phenyl]methyl]amino]-1,1,1-trifluoro-2-propanol]: the IC50 at CETP [1] is 1.1 µM; at CETP [2] it was 42 µM.
For `OC(CN(Cc1cccc(Oc2cccc(C(F)(F)F)c2)c1)c1cccc(Oc2ccccc2)c1)C(F)(F)F` (stereo not shown) [Example 115], the IC50 was 3 µM at CETP [1] and more than 100 µM at CETP [2].
For `OC(CN(Cc1cccc(OC(F)(F)C(F)F)c1)c1cccc(F)c1)C(F)(F)F` (stereo not shown) [Example 43], the IC50 amounted to 4 µM on CETP [1] and 110 µM on CETP [2].
In the case of `OC(CN(Cc1cccc(OC(F)(F)C(F)F)c1)c1cccc(OCc2cccc(F)c2F)c1)C(F)(F)F` (stereo not shown) [Example 399], the results for the IC50 at CETP [1] and at CETP [2] were 0.35 µM and 3.4 µM, respectively.
In the same order, the values of `CCCc1ccc(Nc2cccc(N(Cc3cccc(OC(F)(F)C(F)F)c3)CC(O)C(F)(F)F)c2)cc1` (stereo not shown) [Example 299] are 2.3 µM and more than 100 µM.
As to `OC(CN(Cc1cccc(OC(F)(F)C(F)F)c1)c1cccc(Nc2ccc(Cl)cc2)c1)C(F)(F)F` (stereo not shown) [Example 296], the values for the IC50 on CETP [1] and at CETP [2] were 1.3 µM and 86 µM, respectively.
In the same order, the values of `CCOc1cccc(N(Cc2cccc(OC(F)(F)F)c2)CC(O)C(F)(F)F)c1` (stereo not shown) [Example 128] are 2.4 µM and 35 µM.
In the case of `COc1ccc(CN(CC(O)C(F)(F)F)c2cccc(Oc3ccccc3)c2)cc1` (stereo not shown) [Example 686], the IC50 was 15 µM at CETP [1] and more than 100 µM at CETP [2].
Turning to `CC(C)(C)Oc1cccc(CN(CC(O)C(F)(F)F)c2cccc(Oc3ccccc3)c2)c1` (stereo not shown) [Example 654, 3-[(3-phenoxyphenyl)[[3-(1,1-dimethylethoxy)phenyl]methyl]amino]-1,1,1-trifluoro-2-propanol], the half-inhibitory concentration (IC50) was 0.67 µM at CETP [1] and 12 µM at CETP [2].
In the same order, the values of `OC(CN(Cc1cccc(OC(F)(F)C(F)F)c1)c1cccc(Oc2cc(F)ccc2Br)c1)C(F)(F)F` (stereo not shown) [Example 629, 3-[[3-(2-bromo-5-fluorophenoxy)phenyl][[3-(1,1,2,2-tetrafluoro-ethoxy)phenyl]methyl]amino]-1,1,1-trifluoro-2-propanol] are 0.054 µM and 3.4 µM.
For `OC(CN(Cc1cccc(OC(F)(F)C(F)F)c1)c1cccc(OCc2cccc(Br)c2)c1)C(F)(F)F` (stereo not shown) [Example 401], the IC50 came to 0.18 µM on CETP [1] and 4.2 µM at CETP [2].
In the same order, the values of `COc1cccc(Nc2cccc(N(Cc3cccc(OC(F)(F)C(F)F)c3)CC(O)C(F)(F)F)c2)c1` (stereo not shown) [Example 305] are 1.2 µM and 76 µM.
For the compound `CC(Oc1cccc(N(Cc2cccc(OC(F)(F)C(F)F)c2)CC(O)C(F)(F)F)c1)c1ccccc1` (stereo not shown) [Example 429], the values for the IC50 on CETP [1] and at CETP [2] were 0.44 µM and 4.4 µM, respectively.
